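Growth conditions: 96-well plates. Treatment: test compound, 48 hours, 5 concentrations. Analysis: linear interpolation between bracketing concentrations; unreached endpoints set to highest concentration. GI50 marks 50% less growth.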 The source made the active and inactive calls. Cut-off read from the data, not from the text of the source: active = GI50 up to about 1.1 µM and inactive = higher.
Tests used:
Assay in all cases: growth of human tumour cells (NCI), 48 h
IGROV-1 = tested on: IGROV-1
DU-145 = tested on: DU-145
A549 = tested on: A549
UACC-257 = tested on: UACC-257
RXF 631 = tested on: RXF 631
SF-295 = tested on: SF-295
RPMI-8226 = tested on: RPMI-8226
DMS-273 = tested on: DMS-273
SK-MEL-28 = tested on: SK-MEL-28
CAKI-1 = tested on: CAKI-1
KM-20L2 = tested on: KM-20L2
Malme-3M = tested on: Malme-3M
HOP-92 = tested on: HOP-92
K562 = tested on: K562
PC-3 = tested on: PC-3
SNB-19 = tested on: SNB-19
OVCAR-3 = tested on: OVCAR-3
M14 = tested on: M14
RXF 393 = tested on: RXF 393
SK-OV-3 = tested on: SK-OV-3
EKVX = tested on: EKVX
SW-620 = tested on: SW-620
OVCAR-4 = tested on: OVCAR-4
CCRF-CEM = tested on: CCRF-CEM
MOLT-4 = tested on: MOLT-4
SR = tested on: SR
SNB-78 = tested on: SNB-78
HOP-62 = tested on: HOP-62
HCC 2998 = tested on: HCC 2998
U-251 = tested on: U-251
A498 = tested on: A498
UO-31 = tested on: UO-31
SF-539 = tested on: SF-539
T47D = tested on: T47D
SK-MEL-5 = tested on: SK-MEL-5
SN12C = tested on: SN12C
XF498 = tested on: XF498
OVCAR-8 = tested on: OVCAR-8
MDA-N = tested on: MDA-N
NCI-H23 = tested on: NCI-H23
KM12 = tested on: KM12
MDA-MB-231 = tested on: MDA-MB-231
HCT-116 = tested on: HCT-116
HT-29 = tested on: HT-29
COLO 205 = tested on: COLO 205
UACC-62 = tested on: UACC-62
NCI-H522 = tested on: NCI-H522
HOP-18 = tested on: HOP-18
NCI-H460 = tested on: NCI-H460
TK-10 = tested on: TK-10
NCI-H226 = tested on: NCI-H226
SK-MEL-2 = tested on: SK-MEL-2
MDA-MB-435 = tested on: MDA-MB-435
M19-MEL = tested on: M19-MEL
MCF7 = tested on: MCF7
SF-268 = tested on: SF-268
ACHN = tested on: ACHN
SNB-75 = tested on: SNB-75
DMS-114 = tested on: DMS-114
HL-60 = tested on: HL-60
OVCAR-5 = tested on: OVCAR-5
LXFL 529 = tested on: LXFL 529
DLD-1 = tested on: DLD-1
HCT-15 = tested on: HCT-15
BT-549 = tested on: BT-549
LOX IMVI = tested on: LOX IMVI
786-0 = tested on: 786-0
Hs-578T = tested on: Hs-578T

Measured: GI50

O=C(O)/C(Cl)=C(/Cl)C(=O)Nc1cccc(Cl)c1
16.6 µM: HCT-15
inactive: IGROV-1 18.8 µM | DU-145 > 100 µM | A549 48.1 µM | UACC-257 18 µM | RXF 631 22 µM | SF-295 30.5 µM | RPMI-8226 12.1 µM | DMS-273 12.9 µM | SK-MEL-28 17.9 µM | CAKI-1 7.33 µM | KM-20L2 19.7 µM | Malme-3M 16.9 µM | HOP-92 14.6 µM | K562 6.43 µM | PC-3 18.5 µM | SNB-19 31.7 µM | OVCAR-3 16.7 µM | M14 18.6 µM | RXF 393 16.4 µM | SK-OV-3 15.7 µM | EKVX 17.9 µM | SW-620 12.6 µM | OVCAR-4 18.2 µM | CCRF-CEM 5.87 µM | MOLT-4 4.28 µM | SR 8.24 µM | SNB-78 25.2 µM | HOP-62 > 59.4 µM | HCC 2998 17.5 µM | U-251 28 µM | A498 > 64.1 µM | UO-31 18.5 µM | SF-539 17.6 µM | T47D 22 µM | SK-MEL-5 19 µM | SN12C 20 µM | XF498 18.1 µM | OVCAR-8 18.7 µM | MDA-N 17.3 µM | NCI-H23 15.9 µM | KM12 20.8 µM | MDA-MB-231 14.6 µM | HCT-116 16.2 µM | HT-29 20 µM | COLO 205 10.2 µM | UACC-62 16.8 µM | NCI-H522 4.35 µM | HOP-18 20.4 µM | NCI-H460 > 87.9 µM | TK-10 18.1 µM | NCI-H226 24.8 µM | SK-MEL-2 20.8 µM | MDA-MB-435 19.2 µM | M19-MEL 15.6 µM | MCF7 24.8 µM | SF-268 22.4 µM | ACHN 18.5 µM | SNB-75 17.9 µM | DMS-114 16.6 µM | HL-60 8.91 µM | OVCAR-5 19.7 µM | LXFL 529 15.4 µM | DLD-1 15.6 µM | BT-549 19.4 µM | LOX IMVI 13.8 µM | 786-0 16.9 µM | Hs-578T 24.8 µM

Reference: ChEMBL document CHEMBL1201862, “PubChem BioAssay data set” (2004)
